Assay [1] has as its target T1, lipoxygenase from rabbit reticulocytes (Oryctolagus cuniculus, UniProt P12530).
T1 construct: The lipoxygenase from rabbit reticulocytes is obtained in electrophoretically and immunologically pure form; from tissue; host or cells: rabbit reticulocytes
T1 sequence (P12530 1-663): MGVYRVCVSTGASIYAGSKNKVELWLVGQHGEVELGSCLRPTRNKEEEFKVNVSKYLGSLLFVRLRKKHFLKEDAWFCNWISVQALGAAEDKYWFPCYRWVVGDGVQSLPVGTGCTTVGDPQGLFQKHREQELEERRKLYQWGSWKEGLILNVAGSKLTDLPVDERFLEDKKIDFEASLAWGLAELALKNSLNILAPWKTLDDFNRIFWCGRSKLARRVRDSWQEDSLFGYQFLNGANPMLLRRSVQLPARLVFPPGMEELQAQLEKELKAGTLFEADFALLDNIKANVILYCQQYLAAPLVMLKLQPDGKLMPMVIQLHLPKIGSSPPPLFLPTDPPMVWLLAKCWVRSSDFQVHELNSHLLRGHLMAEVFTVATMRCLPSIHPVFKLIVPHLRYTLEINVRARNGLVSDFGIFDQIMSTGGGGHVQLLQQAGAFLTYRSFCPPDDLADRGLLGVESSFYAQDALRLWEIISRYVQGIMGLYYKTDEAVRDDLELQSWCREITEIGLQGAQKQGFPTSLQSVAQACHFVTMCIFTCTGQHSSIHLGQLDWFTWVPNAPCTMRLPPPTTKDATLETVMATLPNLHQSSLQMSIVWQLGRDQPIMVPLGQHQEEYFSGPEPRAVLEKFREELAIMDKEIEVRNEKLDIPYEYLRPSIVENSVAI
Kind of assay: Inhibition of the activity of lipoxygenase from rabbit reticulocytes (oxygen consumption, Clark electrode). It is filed as biochemical. As to conditions: for IC84: read-out: I84. The protocol:
The lipoxygenase from rabbit reticulocytes was obtained in electrophoretically and immunologically pure form according to a technique known from the literature (S. M. Rapoport et al. Methods in Enzymology 71, 430 (1981)). The determination of lipoxygenase activity follows at 25° C. through the polarographic measurement of the oxygen consumption by means of Clark Electrode in a standardized system.
Through variation of the substance concentrations, the titration curves of the inhibition and therefrom the inhibition concentrations (I-value) of the compounds can be determined.
The testing of compounds for antiasthmatic, antiallergenic, inflammation-inhibiting and antithrombotic activity on the basis on the inhibition of the lipoxygenase reaction of the arachidonic acid cascade follows in a molecular/pharmacological test system. […] The lipoxygenase from rabbit reticulocytes is obtained in electrophoretically and immunologically pure form according to the techniques described in the literature (supra). The determination of the lipoxygenase activity follows at 25° C. through the polorographic measurement of oxygen consumption by means of a Clark-electrode in the following system: 0.1M potassiumphosphate, pH 7.4, with 0.2 percent sodium cholate and 0.53 mM linoleic acid. The enzyme concentration in the measurement preparation came to 25 nM. The compounds to be tested are dissolved in methylglycol (freshly distilled in a vacuum) and pre-incubated for 15 minutes at the measuring temperature in the absence of sodium cholate and linoleic acid. […] The enzyme reaction is started by the addition of sodium cholate and linoleic acid.

The subject of a further assay is thrombocyte aggregation. In words: Arachidonic acid-induced thrombocyte aggregation in thrombocyte-rich plasma. It is filed as cell-based, humans. The conditions noted are these: Homo sapiens; 0.8 mM arachidonic acid; concentration giving total restraint of aggregation. From the text: Since with the new medicines the restraints of lipoxygenase has been identified as a molecular type of attack, also their influence on the thrombocyte-aggregation has been tested. The essential role of the lipoxygenase pathway for irreversibility of the thrombocyte aggregation is now known. (C. E. Dutilh et al. Prostaglandins and Medicine 6, 111 (1981)). The key role is attributed to the irreversibility of the thrombocyte aggregation in the pathogenesis of thrombotic illnesses. […] In the experiments, the thrombocyte aggregation was triggered either by means of arachidonic acid or by means of platelet activation factor (PAF-Acether).
The testing of the compounds for antithrombotic and thrombolytic activity follows in authentic cell systems of humans in vitro. Thrombocyte-rich plasma from the blood of healthy donors is obtained by centrifugation at 1,000×g. The measurement of the thrombocyte aggregation follows by means of an aggregometer based upon diffuse light scattering or light absorption of the produced cell aggregate. The thrombocyte-rich plasma is pre-incubated at 37° C. for 3 minutes with the active substance or substances; thereafter the thrombocyte aggregation is triggered through the addition of either 0.8 mM arachidonic acid or 1 μM platelet activation factor (PAF-acether). The preparations are then stirred with a velocity of 800 rpm. Indeed according to the employed active substance concentration there occurs either a strong delay or a complete inhibition of the thrombocyte aggregation.

The test system of a further assay is guinea pig trachia. Kind of assay: Carbachol-induced spasm of guinea pig trachea. As to conditions: Cavia porcellus; spasm triggered by 3.9 μM carbachol; read-out: active substance concentration at which strong to very strong dilatation was clearly determinable. The source says:
(§1) The testing of the compounds for antiasthmatic activity follows on isolated lung strips and isolated tracheal rings from guinea pigs according to measuring methods known from the literature (supra) in modified form. The measurements follow in thermostatically controlled organ bath, isotonically using a contraction measuring arrangement with lift receiver, measuring coil, measuring amplifier (inductive measurement with the aid of a high frequency resonant circuit). The gasification follows with air. The suspension solution has the following composition: 39.46 g NaCl, 2.2 g KCl, 6.07 g Tris, 1.0 g CaCl2, 9.9 g glucose, 1.0 ml saturated MgCl2 -solution, 43 ml 1N HCl; pH 7.4.
(b) Activity on the carbachol-induced spasm of guinea pig trachia
The spasms are triggered by 3.9 μM carbachol.

Assay [2] deals with guinea pig lung strips. Kind of assay: Arachidonic acid-induced spasm of isolated guinea pig lung strips. The conditions noted are these: active substance 100 μM.
From the text: They display in animal experimental tests on isolated lung strips from guinea pigs a pronounced antiasthmatic effect. The testing of the mentioned pharmacological characteristics follows according to the principles of measuring techniques known from the literature, which come into use in modified form (G. M. Drazen et al. G. Clin. Invest. 63 1 (1979); M. W. Schneider and G. M. Drazen Amer. Rev. Resp. Dis. 121 835 (1980); S. S. Yen and W. Kreutner, Agents Actions 10 274 (1980); S. S. Yen Prostaglandins 22, 183 (1981)).
The compounds of Formula I effect a significant restraint on arachidonic acid-induced bronchial constriction (1.5.10^-5 M arachidonic acid) in the guinea pig lung preparations (see, Example 6). Also with the addition of a cyclooxygenase inhibitor to the measuring system this effect was unaltered, and to some extent stronger, detectably. These experimental results permit without a doubt the conclusion that the compounds of Formula I involve inhibitors of the lipoxygerase pathway of arachidonic utilization, and the above described pharmacological effect is grounded upon this mechanism of activity.
as §1
(a) Activity on spasm of the guinea pig lung strips, induced by exogenous arachidonic acid.
The spasm is triggered by rising concentrations of arachidonic acid (concentrated solution in ethanol, stored in N2 -atmosphere) and is cumulatively measured. […] The active substance caused a highly significant displacement to the right of the Dose-Activity curves for arachidonic acid, visible by a clear elevation of the ED50 - and ED84 -values. The effect can be described through the following activity index: [formula] In an analogous manner, the index i84 is determined from the measured data.

In assay [3] the test system is guinea pig lung strips. Kind of assay: Activity on the basal tones of guinea pig lung strips. As to conditions: Cavia porcellus, basal tone, cumulative dose-activity curve.
From the text: as §1
(c) Activity on the basal tones of guinea pig lung strips.
Increasing concentrations of the active substance are added to the suspension medium. There occurs a dilatation, which is cumulatively measured. From the Dose-Activity-curves are provided the following parameters: […]

[4] abbreviates: 25° C., pH 7.4, 0.53 mM linoleic acid, 15 min pre-incubation, read-out: I50.
Setting [5] is: 25° C., pH 7.4, 0.53 mM linoleic acid, 15 min pre-incubation.

Like-named read-outs stand apart in the source and are kept apart here.

Consider `CCCCCCCCC#CCC#CCC#CCCCC(=O)O` [5,8,11-eicosatriicacid, reference compound], for which the IC50 in assay [1] (setting [4]) came to 1.3 µM. In the case of `CCC(Oc1ccc2ccccc2c1)C(=O)NO` (centres unmarked) [2(2'-naphthoxy)-2-ethyl-acethydroxamic acid], the IC50 in assay [1] (setting [4]) stood at 32 µM.

As for `CCCCC(Oc1ccc2ccccc2c1)C(=O)NO` (centres unmarked) [2(2'-naphthoxy)-2-n-butyl-acethydroxamic acid], the IC50 in assay [1] (setting [4]) was 19 µM.

With `CCC(Oc1cccc2ccccc12)C(=O)NO` (centres unmarked) [2(1'-naphthoxy)-2-ethyl-acethydroxamic acid], the IC50 in assay [1] (setting [4]) was 42 µM. In assay [1] (setting [5]), the IC84 is 130 µM. Take `O=[N+]([O-])c1ccc(O)c(O)c1` [4-nitrocatechol, reference compound]: the IC50 in assay [1] (setting [4]) came to 4.6 µM. Further, in assay [1] (setting [5]), the IC84 was 16 µM. The IC100 in the assay on thrombocyte aggregation was found to be 60 µM.

Regarding `CC(Oc1ccc2ccccc2c1)C(=O)NO` (centres unmarked) [2(2'-naphthoxy)-2-methyl-acethydroxamic acid], the IC50 in assay [1] (setting [4]) was found to be 40 µM. For the same molecule, the IC84 in assay [1] (setting [5]) amounted to 120 µM. For the molecule `CCCCCCCCC(Oc1ccc2ccccc2c1)C(=O)NO` (centres unmarked) [2(2'-naphthoxy)-2-n-octyl-acethydroxamic acid], in assay [1] (setting [4]), the IC50 was 2.3 µM. For the same molecule, the IC84 in assay [1] (setting [5]) was 7 µM. On to `CC(Cc1ccc(O)c(O)c1)C(C)Cc1ccc(O)c(O)c1` (centres unmarked) [nordihydroguaiaretic acid, reference compound], for which the minimal effective concentration in the assay on guinea pig trachia stood at 50 µM. As for `O=C(CCOc1ccc2ccccc2c1)NO` [3(2'-naphthoxy)-n-propylhydroxamic acid, 3(2'-naphthoxy)-propylhydroxamic acid], the IC50 in assay [1] (setting [4]) was 7 µM. Besides, in assay [1] (setting [5]), the IC84 was 15 µM. Consider `CCCC(Oc1ccc2ccccc2c1)C(=O)NO` (centres unmarked) [2(2'-naphthoxy)-2-n-propyl-acethydroxamic acid], for which the IC50 in assay [1] (setting [4]) turned out to be 24 µM. For the molecule `O=C(CCCCCCCOc1ccc2ccccc2c1)NO` [8(2'-naphthoxy)-octylhydroxamic acid], in assay [1] (setting [4]), the IC50 turned out to be 2.1 µM. Besides, in assay [1] (setting [5]), the IC84 stood at 4.6 µM. As for `COc1ccc(O)c(C(C)(C)C)c1` [3-tert.-butyl-4-hydroxy-anisol, reference compound], in the assay with guinea pig lung strips [2], the “activity index i50 (displacement of arachidonic acid ED50)” value was 4.6 and the “activity index i84 (displacement of arachidonic acid ED84)” value stood at 3.6. Besides, the EC50 in the assay on guinea pig lung strips [3] (read-out: ED50 (dilatation)) is 61 µM. Moreover, in the assay with guinea pig lung strips [3] (read-out: ED84 (dilatation)), the EC84 was found to be 130 µM. Also, in assay [1], the IC50 was 160 µM. With `CCCCCCCCCC(Oc1ccc2ccccc2c1)C(=O)NO` (centres unmarked) [2(2'-naphthoxy)-2-n-nonyl-acethydroxamic acid], the IC50 in assay [1] (setting [4]) is 1.5 µM. The IC84 in assay [1] (setting [5]) amounted to 4.8 µM. For `O=C(COc1cccc2ccccc12)NO` [2(1'-naphthoxy)-acethydroxamic acid], in that order: 25 µM and 60 µM.

On to `O=C(NO)c1ccc2ccccc2c1O` [1-hydroxy-2-naphthylhydroxamic acid], for which, in assay [1] (setting [4]), the IC50 amounted to 47 µM. The IC84 in assay [1] (setting [5]) was determined as 500 µM.

`O=C(CCCCOc1ccc2ccccc2c1)NO` [5(2'-naphthoxy)valerylhydroxamic acid, 5(2'-naphthoxy)-valerylhydroxamic acid]: the IC50 in assay [1] (setting [4]) was 3.5 µM. Further, the IC84 in assay [1] (setting [5]) amounted to 6.4 µM.

`NC1=NN(c2cccc(C(F)(F)F)c2)CC1` [BW 755 C, 3-amino-N-(3-trifluoromethylphenyl)-pyrazoline-(2), reference compound]: the IC50 in assay [1] (setting [4]) turned out to be 20 µM. In the case of `O=C(CCCOc1ccc2ccccc2c1)NO` [4(2'-naphthoxy)-n-butyl-hydroxamic acid, 4(2'-naphthoxy)-butylhydroxamic acid], the IC50 in assay [1] (setting [4]) was 4 µM. Further, the IC84 in assay [1] (setting [5]) was 7.5 µM. `CC(C)C(Oc1ccc2ccccc2c1)C(=O)NO` (centres unmarked) [2(2'-naphthoxy)-2-i-propyl-acethydroxamic acid]: in assay [1] (setting [4]), the IC50 worked out at 27 µM.

Source of the values: patent US4670469A, “Hydroxamic acid and pharmaceutical preparations containing the same” (VEB Arzneimittelwerk Dresden, priority 1983, dated 1987).
